Structures can show the parent of a compound that is named as a salt.
How the values were obtained:
[1] = Motor impairment (rotorod); type: in vivo, mice (CF-1); conditions: for dose at which impairment of rotorod performance was noted: oral
Experimental: (§1) The potency of selected compounds to produce catalepsy and motor impairment was evaluated according to the following methods. Groups of male CF-1 mice (Harlan Sprague-Dawley, Inc.), weighing 25-30 g, were food-deprived for 3-5 hours prior to oral administration of the compound of interest. These agents were suspended in 10% DMSO/10% Tween/80% distilled water vehicle and administered in a volume of 0.01 mL/g body weight. Fifty-five minutes after oral (po) administration, the presence or absence of catalepsy was determined by placing the forepaws on a rod (6 mm diameter) mounted 39 mm above the floor of the test chamber. Pressure was applied to immobilize the subject with its back in a concave position. Following removal of pressure, the latency to recover normal posture, as defined by the return of at least one forepaw to the floor of the chamber, or the placement of one hindlimb on the bar, was recorded. Mice were tested three times and considered cataleptic if recovery was not apparent within 30 seconds during any of the three trials. Following determination of catalepsy and at 60 minutes post administration of compound, motor impairment was determined by placing mice on a rotating knurled bar (Rotorod, Ugo Basile model 7600; 6-7 revolutions per minute; 3.8 cm diameter). Mice were tested up to three times; mice failing to remain on the bar for 60 sec during all three tests were considered impaired.

[2] = In vivo Cataleptic Activity; design: species or system mice (CF-1); conditions: for catalepsy (in words): any dose tested, oral
Experimental: as §1

dopamine D-2 receptors = conditions: Snyder and Largent 1988; cited from earlier work
sigma receptors = conditions: Snyder and Largent 1988; cited from earlier work
dopamine receptors [3] = test: In Vivo Dopamine Antagonist Activity (inhibition of apomorphine-induced climbing); design: species or system mice (CF-1)
dopamine receptors [4] = conditions: Welch et al. 1980; cited from earlier work
[5] = molecular target: T1, sigma receptor ([3H](+)-3-PPP site) (Cavia porcellus, UniProt Q60492); test: In Vitro Sigma Receptor Binding, [3H](+)-3-PPP; design: species or system guinea pig; conditions: guinea pig brain; 45 minutes at 25° C.; read-out: Sigma [3H](+)-3-PPP binding IC50
T1 construct: frozen guinea pig brains; tissue PelFreez Biologicals, Rogers, AK; host or cells: guinea pig brain membranes
T1 sequence (Q60492 whole entry): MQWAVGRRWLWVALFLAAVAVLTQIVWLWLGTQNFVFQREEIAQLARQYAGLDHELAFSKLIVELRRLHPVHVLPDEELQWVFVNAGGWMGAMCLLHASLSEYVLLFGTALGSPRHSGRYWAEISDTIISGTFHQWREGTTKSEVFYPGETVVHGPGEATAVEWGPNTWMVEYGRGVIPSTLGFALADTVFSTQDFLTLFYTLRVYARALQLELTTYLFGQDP
Experimental: (§2) For both assays frozen guinea pig brains (PelFreez Biologicals, Rogers, AK) were thawed and homogenized in 10 volumes (w/v) of ice cold 0.32M sucrose using 10 strokes of a motor-drivenglass-fitted teflon pestle adjusted to 600 rpm. The homogenate was centrifuged (4° C.) at 900× g for 10 minutes and the resultant supernatant collected and centrifuged at 22,000×g for 20 minutes. The pellet obtained from the centrifugation was resuspended in 10 volumes of 50 mM Tris HCl (pH 7.4, 25° C.) and incubated for 30 minutes at 37° C. Following the preincubation, the homogenate was centrifuted at 22,000×g for 20 minutes and the final pellet was resuspended in buffer to a protein concentration of 0.5-1.0 mg/mL for use in the assay.
(§3) Binding reactions were initiated by the addition of tissue (800 μL) to tubes containing assay buffer, the radioligand (final concentration 1-3 nM) and the compound of interest. Haloperidol (10 μM) and (+)-3-PPP (10 μM) were used to determine the levels of […] [^3 H]DTG and [^3 H](+)PPP binding, respectively. Final assay volume was 1 mL. Reactions were allowed to proceed for 45 minutes at 25° C. and terminated by rapid filtration over Whatman GF/B filters which were washed 3 times with 5 mL of cold buffer. Radioactivity trapped on the filters was determined using routine methods. […] All assays were performed using triplicate determinations. For comparison purposes, IC50 values are reported rather than Ki values.

[6] = molecular target: sigma receptor ([3H]DTG site); test: In Vitro Sigma Receptor Binding, [3H]DTG; conditions: guinea pig brain; 45 minutes at 25° C.
Experimental: as §2, §3

dopamine (D-2) receptors = molecular target: T2, dopamine (D-2) receptors (Rattus norvegicus, UniProt P61169); test: In Vitro Dopamine (D-2) Receptor Binding, [3H]sulpiride; conditions: rat corpus striatum; 3 nM [3H]sulpiride; read-out: Dopamine D-2 [3H]sulpiride Ki
T2 construct: the corpus striatum was dissected and homogenized; from tissue; host or cells: rat corpus striatum membranes
T2 sequence (P61169 whole entry): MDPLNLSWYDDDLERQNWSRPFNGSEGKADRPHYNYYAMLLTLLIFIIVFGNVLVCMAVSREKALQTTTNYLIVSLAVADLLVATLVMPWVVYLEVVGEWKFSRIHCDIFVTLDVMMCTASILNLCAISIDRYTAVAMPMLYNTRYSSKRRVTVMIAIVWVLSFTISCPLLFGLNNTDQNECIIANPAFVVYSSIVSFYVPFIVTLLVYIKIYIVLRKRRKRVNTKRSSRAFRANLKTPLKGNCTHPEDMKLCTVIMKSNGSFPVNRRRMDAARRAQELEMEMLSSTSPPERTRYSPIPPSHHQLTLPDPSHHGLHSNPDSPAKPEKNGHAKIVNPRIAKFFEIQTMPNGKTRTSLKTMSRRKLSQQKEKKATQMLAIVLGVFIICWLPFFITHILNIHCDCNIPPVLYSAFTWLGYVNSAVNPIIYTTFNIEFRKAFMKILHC
Experimental: On the day of assay, rats were sacrificed by decapitation, the corpus striatum was dissected and homogenized in 20 volumes of ice-cold 50 mM Tris HCl (pH 7.5, 25° C.). The homogenate was centrifuged (4° C.) at 48,000×g for 10 minutes and the resulting pellet was resuspended in 20 volumes of fresh buffer and recentrifuged. […] A portion of the suspension (800 μL) was added in triplicate to tubes containing 3 nM [^3 H]sulpiride and the test compound. The final assay volume was 1 mL; haloperidol (10 μM) was used to determine non-specific binding. Following a 60 minute incubation at 25° C., the reactions were terminated by rapid filtration over Whatman GF/B filters which had been pretreated in a solution of 0.3% (w/v) of aqueous polyethylenimine. Filters were washed three times using 5 mL of ice-cold buffer and processed using standard procedures to determine radioactivity. IC50 values were obtained from concentration-response curves in which a number of concentrations of test compound were examined. Ki values were determined using the Cheng-Prusoff equation.

[7] = molecular target: T3, serotonin 5-HT2 receptors (Rattus norvegicus, UniProt P14842); test: In Vitro Serotonin (5-HT2) Receptor Binding, [3H]ketanserin; conditions: for Ki: rat cortical membranes, 1 nM [3H]ketanserin
T3 construct: Rat cortical synaptosomal membranes were prepared on the day of assay; from tissue; host or cells: rat frontal cortex synaptosomal membranes
T3 sequence (P14842 whole entry): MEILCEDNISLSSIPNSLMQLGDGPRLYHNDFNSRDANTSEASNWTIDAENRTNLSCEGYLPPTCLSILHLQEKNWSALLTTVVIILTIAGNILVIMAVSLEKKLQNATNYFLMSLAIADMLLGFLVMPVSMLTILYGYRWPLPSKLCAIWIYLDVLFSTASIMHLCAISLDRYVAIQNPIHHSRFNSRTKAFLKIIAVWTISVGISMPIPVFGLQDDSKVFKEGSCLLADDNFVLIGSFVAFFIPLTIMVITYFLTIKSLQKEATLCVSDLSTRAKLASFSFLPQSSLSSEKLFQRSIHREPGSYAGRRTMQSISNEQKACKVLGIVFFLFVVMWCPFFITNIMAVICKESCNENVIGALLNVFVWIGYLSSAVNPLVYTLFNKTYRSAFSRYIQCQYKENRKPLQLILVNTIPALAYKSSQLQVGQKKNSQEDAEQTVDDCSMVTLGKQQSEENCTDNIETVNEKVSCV
Experimental: The potency of compounds to inhibit the specific binding of [^3 H]ketanserin (84.2 Ci/mM) to serotonin 5-HT2 receptors was determined as detailed previously [J. E. Leysen, C. J. E. Niemegers, J. M. Van Neuten and P. M. Laduron, Mol. Pharmacol., 21, 301-314 (1982)]. Rat cortical synaptosomal membranes were prepared on the day of assay. Animals were sacrified by decapitation, the frontal cortex was removed and homogenized in 10 volumes (w/v) of ice-cold 0.32M sucrose using a motor driven teflon pestle fitted to a glass tube. The synaptosomal pellet was suspended in 50 mM Tris HCl (pH 7.6 at 25° C.) to a concentration of 7.5 mg original wet weight/mL. For the binding reaction, 400 μL of this tissue suspension was added to polypropylene tubes containing 50 mM Tris HCl and [^3 H]ketanserin (final concentration of 1 nM) in a final assay volume of 0.5 mL. Following a 15 minute incubation at 37° C., the binding reaction was terminated by rapid vacuum filtration over Whatman GF/B filters (presoaked in 0.1% PEI) followed by 3×4 mL washes with ice cold 50 mM Tris HCl. Nonspecific binding was assessed in the presence of 10 μM methysergide. All incubations were performed in triplicate. IC50 values were determined using log logit analysis.

## O=C(CCCN1C2CCC1c1c([nH]c3ccc(F)cc13)C2)c1ccc(F)cc1 (stereo not drawn) [Example 4 F H (CH2)3 CO 4-FPh 2, 2-fluoro-11-[4-(4-fluorophenyl)-4-oxobutyl]-5,6,7,8,9,10-hexahydro-7,10-iminocyclohept[b]indole]
[1]; 300 mg/kg po, n=4
  Failing Rotorod Number: 2
[1]; 500 mg/kg po, n=3
  Failing Rotorod Number: 1
[1]
  dose at which impairment of rotorod performance was noted: 300 to 500 mg/kg
[2]; 300 mg/kg po, n=4
  Cataleptic Number: 0
[2]; 500 mg/kg po, n=3
  Cataleptic Number: 0
[2]
  catalepsy (in words): catalepsy was not observed

## CN(C)CCCN1c2ccccc2Sc2ccc(Cl)cc21 [chlorpromazine]
Dopamine D-2 receptors
  binding to dopamine D-2 receptors (in words): bind to both dopamine D-2 and sigma receptors
Sigma receptors
  binding to sigma receptors (in words): bind to both dopamine D-2 and sigma receptors

## O=C(CCCCN1C2CCC1c1c([nH]c3ccccc13)C2)c1ccc(F)cc1 (stereo not drawn) [Example 1 H H (CH2)4 CO 4-FPh 2, 11-[5-(4-fluorophenyl)-5-oxopentyl]-5,6,7,8,9,10-hexahydro-7,10-iminocyclohept[b]indole]
[1]; 300 mg/kg po, n=4
  Failing Rotorod Number: 1
[1]; 500 mg/kg po, n=4
  Failing Rotorod Number: 4
[1]
  dose at which impairment of rotorod performance was noted: 300 to 500 mg/kg
Dopamine receptors [3]; oral administration, apomorphine 3 mg/kg sc
  potency (ED50) to inhibit apomorphine-induced climbing: 15.7 mg/kg
[2]; 300 mg/kg po, n=4
  Cataleptic Number: 0
[2]; 500 mg/kg po, n=4
  Cataleptic Number: 0
[2]
  catalepsy (in words): catalepsy was not observed

## O=C(CCCN1CCC(O)(c2ccc(Cl)cc2)CC1)c1ccc(F)cc1 [haloperidol]
Dopamine D-2 receptors
  binding to dopamine D-2 receptors (in words): bind to both dopamine D-2 and sigma receptors
Dopamine receptors [3]; intraperitoneal (ip) administration
  potency to inhibit apomorphine-induced climbing (reference): 0.01 mg/kg
Sigma receptors
  binding to sigma receptors (in words): bind to both dopamine D-2 and sigma receptors

## OC(CCCN1CC[C@@H]2[C@@H](C1)c1cc(F)ccc1N2c1ccc(F)cc1)c1ccc(F)cc1 (relative stereo) [4a,9b-trans-8-fluoro-5-(4-fluorophenyl)-2-[4-(4-fluorophenyl)-4-hydroxy-butyl]-2,3,4,4a,9b-hexahydro-1H-pyrido[4,3-b]indole hydrochloride]
Dopamine receptors [4]
  neuroleptic activity (in words): potent neuroleptic which acts by blocking dopamine receptors

## Fc1ccc(C(=CCCN2C3CCCC2c2c([nH]c4ccc(F)cc24)C3)c2ccc(F)cc2)cc1 (stereo not drawn) [12 F H (CH2)2 CHC (4-FPh)2 3]
[5]
  IC50: 10 µM
[6]
  IC50: 1.91 µM
Dopamine (D-2) receptors
  Ki: 3.73 µM
[7]
  Ki: 0.625 µM

## Fc1ccc(CCCCN2C3CCCC2c2c([nH]c4ccccc24)C3)cc1 (stereo not drawn) [11 H H (CH2)4 4-FPh 3]
[5]
  IC50: 0.279 µM
[6]
  IC50: 0.064 µM
Dopamine (D-2) receptors
  Ki: 0.915 µM
[7]
  Ki: 0.0236 µM

## CC(CCc1ccccc1)N1C2CCC1c1c([nH]c3ccccc13)C2 (single isomer, unassigned) [1 (low Rf) H H CH(CH3)(CH2)2 Ph 2]
[5]
  IC50: 1.16 µM
[6]
  IC50: 0.119 µM
Dopamine (D-2) receptors
  Ki: 0.53 µM
[7]; […], read-out: Serotonin 5-HT2 [3H]ketanserin, % @ 1 μM
  inhibition at 1 µM: 72.8%

## c1ccc(CCCCN2C3CCC2c2c(n(Cc4ccccc4)c4ccccc24)C3)cc1 (stereo not drawn) [5 H Bn (CH2)4 Ph 2]
[5]
  IC50: 0.396 ± 0.092 µM
[6]
  IC50: 0.267 ± 0.087 µM
Dopamine (D-2) receptors
  Ki: 1.83 µM
[7]
  Ki: 0.506 µM

## Fc1ccc2[nH]c3c(c2c1)C1CCCC(C3)N1CCCCc1ccccc1 (stereo not drawn) [12 F H (CH2)4 Ph 3]
[5]
  IC50: 0.117 µM
[6]
  IC50: 0.042 µM
Dopamine (D-2) receptors
  Ki: 1.87 µM
[7]
  Ki: 0.172 µM
